In one data set the test system is HIV-1 (IIIB). Description: Antiviral assay in MT-4 cells (HIV MT-4 antiviral assay). Format: cell-based. The settings on record: Human immunodeficiency virus 1, IIIB, MT4, 120 h, HIV-1 (IIIB) in MT-4 cells, 5 days incubation; read-out: EC50. The procedure:
Compounds were tested in a high-throughput 384-well assay format for their ability to inhibit the replication of HIV-1 (IIIB) in MT-4 cells. Compounds were serially diluted (1:3) in DMSO on 384-well polypropylene plates and further diluted 200-fold into complete RPMI media (10% FBS, 1% P/S) using the Biotek Micro Flow and Labcyte ECHO acoustic dispenser. Each plate contained up to 8 test compounds, with negative (No Drug Control) and 5 μM AZT positive controls. MT-4 cells were pre-infected with 10 μL of either RPMI (mock-infected) or a fresh 1:250 dilution of HIV-1 IIIB concentrated virus stock. Infected and uninfected MT-4 cells were further diluted in complete RPMI media and added to each plate using a Micro Flow dispenser. After 5 days incubation in a humidified and temperature controlled incubator (37° C.), Cell Titer Glo (Promega) was added to the assay plates and chemiluminescence read using an Envision plate-reader.

Data set [1] can be described thus: Cytotoxicity assay in MT-4 cells. Format: cell-based, human. The settings on record: human, uninfected MT-4 cells, 5 days incubation; read-out: CC50. The procedure: Each plate contained up to 8 test compounds, with negative (No Drug Control) and 5 μM AZT positive controls. MT-4 cells were pre-infected with 10 μL of either RPMI (mock-infected) or a fresh 1:250 dilution of HIV-1 IIIB concentrated virus stock. Infected and uninfected MT-4 cells were further diluted in complete RPMI media and added to each plate using a Micro Flow dispenser. After 5 days incubation in a humidified and temperature controlled incubator (37° C.), Cell Titer Glo (Promega) was added to the assay plates and chemiluminescence read using an Envision plate-reader. […] Assays were performed as above except uninfected MT-4 cells were added to each well containing test compound. In addition, 10 μM puromycin was added to the last column of each assay plate to assess a base level of cytotoxicity.

Molecules are shown by their SMILES.

`Cn1cc2c(n1)C[C@H]1CN(C2)C(=O)c2c(O)c(=O)c(C(=O)NCc3c(F)cc(F)cc3F)cn21` [Example 87-1, (12S)-7-hydroxy-2-methyl-6,8-dioxo-N-(2,4,6-trifluorobenzyl)-2,4,6,8,12,13-hexahydro-5,12-methanopyrazolo[4,3-f]pyrido[1,2-a][1,4]diazonine-9-carboxamide]: the EC50 (in general, the concentration that produces a half-maximal response) in the data set with HIV-1 (IIIB) came to 6.09 nM. The CC50 (commonly the concentration at which the toxic effect on the cells reaches its halfway point) at 5 days in data set [1] is > 50000 nM.

In the case of `Cn1ncc2c1C[C@H]1CN(C2)C(=O)c2c(O)c(=O)c(C(=O)NCc3c(F)cc(F)cc3F)cn21` [Example 87-2, (12S)-7-hydroxy-1-methyl-6,8-dioxo-N-(2,4,6-trifluorobenzyl)-1,4,6,8,12,13-hexahydro-5,12-methanopyrazolo[4,3-f]pyrido[1,2-a][1,4]diazonine-9-carboxamide], in the data set with HIV-1 (IIIB), the EC50 is 1.74 nM. Further, the CC50 at 5 days in data set [1] was > 50000 nM.

`O=C(NCc1ccc(F)c(Cl)c1F)c1cn2c(c(O)c1=O)C(=O)N1C[C@H]2CCc2ccc(F)cc21` [Example 90-1, (12R)—N-(3-chloro-2,4-difluorobenzyl)-3-fluoro-7-hydroxy-6,8-dioxo-6,8,13,14-tetrahydro-12H-5,12-methanobenzo[e]pyrido[1,2-a][1,4]diazonine-9-carboxamide]: in the data set with HIV-1 (IIIB), the EC50 came out at 24.1 nM. Also, the CC50 at 5 days in data set [1] is > 32600 nM.

As for `CO[C@H]1CC[C@H]2CN(C1)C(=O)c1c(O)c(=O)c(C(=O)NCc3c(F)cc(F)cc3F)cn12` [Example 91, (4S,7S)-12-hydroxy-4-methoxy-1,11-dioxo-N-(2,4,6-trifluorobenzyl)-1,4,5,6,7,11-hexahydro-3H-2,7-methanopyrido[1,2-a][1,4]diazonine-10-carboxamide], the EC50 in the data set with HIV-1 (IIIB) stood at 23.2 nM. Besides, the CC50 at 5 days in data set [1] was > 50000 nM.

Take `O=C(NCc1ccc(F)cc1F)c1cn2c(c(O)c1=O)C(=O)N1C[C@@H]2COc2cc(F)c(F)cc21` [Example 92-1, (6R)—N-(2,4-difluorobenzyl)-10,11-difluoro-1-hydroxy-2,14-dioxo-2,6,7,14-tetrahydro-6,13-methanobenzo[b]pyrido[2,1-f][1,4,7]oxadiazonine-3-carboxamide]: in the data set on HIV-1 (IIIB), the EC50 was 535 nM. Moreover, the CC50 at 5 days in data set [1] is > 50000 nM.

In the case of `O=C(NCc1ccc(F)c(Cl)c1F)c1cn2c(c(O)c1=O)C(=O)N1C[C@@H]2CCCc2ccccc21` [Example 97-1, (6S)—N-(3-chloro-2,4-difluorobenzyl)-1-hydroxy-2,15-dioxo-2,6,7,8,9,15-hexahydro-6,14-methanobenzo[e]pyrido[1,2-a][1,4]diazecine-3-carboxamide], the EC50 in the data set with HIV-1 (IIIB) was determined as 2.85 nM. In addition, the CC50 at 5 days in data set [1] worked out at 6060 nM.

Consider `O=C(NCc1ccc(F)c(Cl)c1F)c1cn2c(c(O)c1=O)C(=O)N1C[C@H]2CCCc2ccccc21` [Example 97-2, (6R)—N-(3-chloro-2,4-difluorobenzyl)-1-hydroxy-2,15-dioxo-2,6,7,8,9,15-hexahydro-6,14-methanobenzo[e]pyrido[1,2-a][1,4]diazecine-3-carboxamide], for which the EC50 in the data set on HIV-1 (IIIB) is 6.05 nM. Further, the cytotoxic concentration (CC50) at 5 days in data set [1] was 16300 nM.

`COC1CCCN2C[C@@H]1n1cc(C(=O)NCc3c(F)cc(F)cc3F)c(=O)c(O)c1C2=O` (stereo partly drawn) [Example 99-1, (7S)-12-hydroxy-6-methoxy-1,11-dioxo-N-(2,4,6-trifluorobenzyl)-1,4,5,6,7,11-hexahydro-3H-2,7-methanopyrido[1,2-a][1,4]diazonine-10-carboxamide]: in the data set with HIV-1 (IIIB), the half-maximal effective concentration (EC50) was 1.53 nM. The CC50 at 5 days in data set [1] was > 22200 nM.

Consider `COC1CCCN2C[C@H]1n1cc(C(=O)NCc3c(F)cc(F)cc3F)c(=O)c(O)c1C2=O` (stereo partly drawn) [Example 99-2, (7R)-12-hydroxy-6-methoxy-1,11-dioxo-N-(2,4,6-trifluorobenzyl)-1,4,5,6,7,11-hexahydro-3H-2,7-methanopyrido[1,2-a][1,4]diazonine-10-carboxamide], for which the EC50 in the data set with HIV-1 (IIIB) turned out to be 3.02 nM. The CC50 at 5 days in data set [1] is > 23400 nM.

The values above are taken from patent US12227520B2 (priority 2019, dated 2025).
